We go through 30 compounds from paper PMC8286840, “Identifying SARS-CoV-2 antiviral compounds by screening for small molecule inhibitors of Nsp3 papain-like protease” (Biochemical Journal, 2021).

In assay [1] the target is T1, SARS-CoV-2 PLpro (nsp3 1564–1878) (Severe acute respiratory syndrome coronavirus 2, UniProt P0DTD1). The experiment in a line: biochemical. The note with it: read-out: % of control remaining. Details: FRET-quenched peptide (Pro3) cleavage by PLpro, 10 min pre-incubation, slope over 20 min, normalised to no-compound control.
For assay [2], the target named is T1, SARS-CoV-2 PLpro (nsp3 1564–1878). The experiment in a line: biochemical. Also noted: FRET-quenched peptide (Pro3) cleavage by PLpro, 10 min pre-incubation, slope over 20 min, normalised to no-compound control. The note with it: read-out: % of control remaining. This is another data set of the same source.

Structures can show the parent of a compound that is named as a salt. Where two headings read alike, the source gives them in different places.

On to `Clc1ccc(CCC(Cn2ccnc2)Sc2c(Cl)cccc2Cl)cc1` (stereo not drawn) [Butoconazole nitrate], for which the remaining activity at 1.25 µM in assay [1] (Well no.=2204, low concentration screen) is 96.3%. In assay [2] (Well no.=2204, high concentration screen), the remaining activity at 3.75 µM was found to be 93.9%.
On to `COc1cc(-c2oc3cc(O)cc(O)c3c(=O)c2O)ccc1O` [Isorhamnetine], for which the remaining activity at 1.25 µM in assay [1] (Well no.=3150, low concentration screen) amounted to 99.4%. Moreover, in assay [2] (Well no.=3150, high concentration screen), the remaining activity at 3.75 µM is 99.7%.
Consider `Nc1ncnc2c1ncn2[C@@H]1O[C@H](COP(=O)(O)O)[C@@H](O)[C@H]1O` [Adenosine monophosphate], for which the remaining activity at 1.25 µM in assay [1] (Well no.=7109, low concentration screen) turned out to be 103%; in assay [1] (Well no.=7816, low concentration screen), 107%. The remaining activity at 3.75 µM in assay [2] (Well no.=7109, high concentration screen) is 102%; in assay [2] (Well no.=7816, high concentration screen), 104%.
Regarding `O=C(O)CCC(=O)N1CCC[C@H]1C(=O)O` [N-Succinyl-L-proline], the remaining activity at 1.25 µM in assay [1] (Well no.=1506, low concentration screen) worked out at 89.9%. Moreover, the remaining activity at 3.75 µM in assay [2] (Well no.=1506, high concentration screen) came to 91.2%.
On to `O=C(O)C1=C[C@@H](O)[C@@H](O)[C@H](O)C1` [Shikimic acid], for which the remaining activity at 1.25 µM was 98.2% in assay [1] (Well no.=3116, low concentration screen) and 104% in assay [1] (Well no.=7209, low concentration screen). The remaining activity at 3.75 µM in assay [2] (Well no.=3116, high concentration screen) amounted to 98.6%; in assay [2] (Well no.=7209, high concentration screen) it was 102%.
Take `CCCCCN(C)CCC(O)(P(=O)(O)O)P(=O)(O)O` [Ibandronate sodium]: the remaining activity at 1.25 µM in assay [1] (Well no.=5363, low concentration screen) was determined as 90.7%. Moreover, the remaining activity at 3.75 µM in assay [2] (Well no.=5363, high concentration screen) was found to be 89.7%.
With `Nc1nc2c(ncn2[C@@H]2O[C@@H]3COP(=O)(O)O[C@H]4[C@@H](O)[C@H](n5cnc6c(=O)[nH]c(N)nc65)O[C@@H]4COP(=O)(O)O[C@H]3[C@H]2O)c(=O)[nH]1` [Cyclic-di-GMP], the remaining activity at 1.25 µM in assay [1] (Well no.=7774, low concentration screen) was 103%; in assay [1] (Well no.=8405, low concentration screen) it was 101%. In addition, the remaining activity at 3.75 µM in assay [2] (Well no.=7774, high concentration screen) was found to be 102%; in assay [2] (Well no.=8405, high concentration screen), 100%.
Consider `CC1(C)CC(O)CC(C)(C)N1[O]` [TEMPOL], for which the remaining activity at 1.25 µM in assay [1] stood at 93.1%. For the same compound, the remaining activity at 3.75 µM in assay [2] was 95.9%.
For the compound `Cc1cnc(Nc2ccc(OCCN3CCCC3)cc2)nc1Nc1cccc(S(=O)(=O)NC(C)(C)C)c1` [TG101348], the remaining activity at 1.25 µM in assay [1] (Well no.=2853, low concentration screen) came out at 95.4%. Also, in assay [2] (Well no.=2853, high concentration screen), the remaining activity at 3.75 µM stood at 98.3%.
Regarding `COc1ccccc1N1CCN(CC(O)COc2cccc3ccccc23)CC1` (stereo not drawn) [Naftopidil], the remaining activity at 1.25 µM in assay [1] (Well no.=7523, low concentration screen) came to 101%. Also, the remaining activity at 3.75 µM in assay [2] (Well no.=7523, high concentration screen) was 97.2%.
For the compound `[N-]=[N+]=N[C@H]1[C@@H](O)[C@H](n2cc(F)c(N)nc2=O)O[C@@H]1CO` [3'-Azido-3'-deoxy-5-fluorocytidine], the remaining activity at 1.25 µM in assay [1] (Well no.=7910, low concentration screen) stood at 96.3%. The remaining activity at 3.75 µM in assay [2] (Well no.=7910, high concentration screen) stood at 95%.
With `Cc1[nH]cnc1CN1CCc2c(c3ccccc3n2C)C1=O` [Alosetron (Hydrochloride)], in assay [1] (Well no.=8289, low concentration screen), the remaining activity at 1.25 µM amounted to 105%. For the same compound, the remaining activity at 3.75 µM in assay [2] (Well no.=8289, high concentration screen) was 99.5%.
`Cc1cnc(NC(=O)C2=C(O)c3ccccc3S(=O)(=O)N2C)s1` [Meloxicam sodium]: in assay [1] (Well no.=974, low concentration screen), the remaining activity at 1.25 µM was 98.2%. In addition, the remaining activity at 3.75 µM in assay [2] (Well no.=974, high concentration screen) amounted to 99.2%.
On to `O=C(Nc1cc(C(=O)Nc2ccc(S(=O)(=O)O)cc2S(=O)(=O)O)cc(C(=O)Nc2ccc(S(=O)(=O)O)cc2S(=O)(=O)O)c1)Nc1cc(C(=O)Nc2ccc(S(=O)(=O)O)cc2S(=O)(=O)O)cc(C(=O)Nc2ccc(S(=O)(=O)O)cc2S(=O)(=O)O)c1` [NF449 octasodium salt], for which the remaining activity at 1.25 µM in assay [1] (Well no.=1095, low concentration screen) was found to be 97.6%. Also, in assay [2] (Well no.=1095, high concentration screen), the remaining activity at 3.75 µM was 98.3%.
Consider `C[C@@H]1O[C@@]2(CS1)CN1CCC2CC1` [Cevimeline (hydrochloride hemihydrate)], for which the remaining activity at 1.25 µM in assay [1] (Well no.=7571, low concentration screen) was found to be 91.5%. For the same compound, the remaining activity at 3.75 µM in assay [2] (Well no.=7571, high concentration screen) amounted to 90.9%.
Regarding `Cc1cc(Nc2nc(N[C@@H](C)c3ccc(F)cc3)c(C#N)cc2F)n[nH]1` [AZ-960], in assay [1] (Well no.=2980, low concentration screen), the remaining activity at 1.25 µM worked out at 93.6%. Further, the remaining activity at 3.75 µM in assay [2] (Well no.=2980, high concentration screen) came out at 92.7%.
With `COc1cc(Nc2ncc(F)c(Nc3ccc4c(n3)NC(=O)C(C)(C)O4)n2)cc(OC)c1OC` [R406], in assay [1] (Well no.=4816, low concentration screen), the remaining activity at 1.25 µM turned out to be 101%. Besides, the remaining activity at 3.75 µM in assay [2] (Well no.=4816, high concentration screen) was 99.1%.
As for `O=C(NC1CCOCC1)c1ccc(-c2cc(-c3c[nH]nc3-c3ccccn3)ccn2)cc1` [GW788388], the remaining activity at 1.25 µM in assay [1] (Well no.=5067, low concentration screen) amounted to 102%. Also, the remaining activity at 3.75 µM in assay [2] (Well no.=5067, high concentration screen) is 106%.
`C=CC(=O)N1CC/C(=C\c2ccc(F)c([N+](=O)[O-])c2)C(=O)/C(=C/c2ccc(F)c([N+](=O)[O-])c2)C1` [VLX1570]: in assay [1] (Well no.=7794, low concentration screen), the remaining activity at 1.25 µM stood at 95.6%. Moreover, the remaining activity at 3.75 µM in assay [2] (Well no.=7794, high concentration screen) was 95.4%.
Turning to `NC(N)=NC(N)=Nc1cccc(Cl)c1` [1-(m-Chlorophenyl)-biguanide hydrochloride], the remaining activity at 1.25 µM in assay [1] (Well no.=487, low concentration screen) stood at 106%. For the same compound, the remaining activity at 3.75 µM in assay [2] (Well no.=487, high concentration screen) came out at 103%.
As for `C[C@@H]1O[C@@H](OC[C@H]2O[C@@H](Oc3cc(O)c4c(c3)O[C@H](c3ccc(O)cc3)CC4=O)[C@H](O)[C@@H](O)[C@@H]2O)[C@H](O)[C@H](O)[C@H]1O` [Narirutin], the remaining activity at 1.25 µM in assay [1] (Well no.=3347, low concentration screen) was 91.9%. The remaining activity at 3.75 µM in assay [2] (Well no.=3347, high concentration screen) was found to be 93.8%.
For `Cc1cnc(NC(=O)C2=C(O)c3ccccc3S(=O)(=O)N2C)s1` [Meloxicam], the remaining activity at 1.25 µM in assay [1] (Well no.=1578, low concentration screen) stood at 94.4%. The remaining activity at 3.75 µM in assay [2] (Well no.=1578, high concentration screen) came out at 96.6%.
Take `CCCNC(C)C(=O)Nc1ccccc1C` (stereo not drawn) [Prilocaine hydrochloride]: the remaining activity at 1.25 µM in assay [1] (Well no.=1355, low concentration screen) amounted to 97.2%. Also, the remaining activity at 3.75 µM in assay [2] (Well no.=1355, high concentration screen) was 98.5%.
On to `C=C1CC[C@H](O)C/C1=C/C=C1\CCC[C@]2(C)[C@@H]([C@H](C)/C=C/[C@H](C)C(C)C)CC[C@@H]12` [Vitamin D2], for which the remaining activity at 1.25 µM in assay [1] (Well no.=7411, low concentration screen) worked out at 107%. Moreover, in assay [2] (Well no.=7411, high concentration screen), the remaining activity at 3.75 µM came out at 106%.
As for `COc1ccc2c(c1)c(CC(=O)Nc1ccc(NC(C)=O)cc1)c(C)n2C(=O)c1ccc(Cl)cc1` [N-(4-acetamidophenyl)indomethacinamide], in assay [1] (Well no.=343, low concentration screen), the remaining activity at 1.25 µM came out at 98.3%. Further, in assay [2] (Well no.=343, high concentration screen), the remaining activity at 3.75 µM was found to be 97.9%.
Regarding `CCCNC[C@H](O)COc1ccccc1C(=O)CCc1ccccc1` [(S)-(-)-propafenone hydrochloride], the remaining activity at 1.25 µM in assay [1] (Well no.=1451, low concentration screen) worked out at 96.2%. The remaining activity at 3.75 µM in assay [2] (Well no.=1451, high concentration screen) turned out to be 93.6%.
For the compound `Cn1c(SCC(=O)N2CCC[C@H]2C(=O)Nc2ccccc2-c2ccccc2)nc2ccccc21` [TCS 1102], the remaining activity at 1.25 µM in assay [1] (Well no.=8429, low concentration screen) was 98.6%. Besides, the remaining activity at 3.75 µM in assay [2] (Well no.=8429, high concentration screen) came to 98.6%.
`O=C(O)CCCCC(=O)O` [Adipic acid]: in assay [1] (Well no.=6869, low concentration screen), the remaining activity at 1.25 µM amounted to 102%. In assay [2] (Well no.=6869, high concentration screen), the remaining activity at 3.75 µM stood at 98.1%.
Regarding `CN1CCC(=C2c3ccccc3C=Cc3ccccc32)CC1` [Cyproheptadine], in assay [1] (Well no.=2300, low concentration screen), the remaining activity at 1.25 µM is 97.2%. The remaining activity at 3.75 µM in assay [2] (Well no.=2300, high concentration screen) was 98.2%.
Regarding `CC(=O)Oc1ccc(C(c2ccc(OC(C)=O)cc2)c2ccccn2)cc1` [Bisacodyl], the remaining activity at 1.25 µM in assay [1] (Well no.=2175, low concentration screen) amounted to 105%. For the same compound, in assay [2] (Well no.=2175, high concentration screen), the remaining activity at 3.75 µM was determined as 102%.
